Test results published in PubChem BioAssay (NCI).
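Cells were grown in 96-well plates and exposed to each compound for 48 hours at five concentrations; endpoints were interpolated linearly between bracketing concentrations, or set to the highest concentration if not reached. GI50 = concentration required for 50% inhibition of growth. At the TGI there is no net growth.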

Assays:
Assay in all cases: inhibition of tumour cell growth, NCI panel, 48 h
786-0 renal = tested on: 786-0 renal
BT-549 breast = tested on: BT-549 breast
CCRF-CEM leukemia = tested on: CCRF-CEM leukemia
HL-60(TB) leukemia = tested on: HL-60(TB) leukemia
MOLT-4 leukemia = tested on: MOLT-4 leukemia
OVCAR-5 ovarian = tested on: OVCAR-5 ovarian
TK-10 renal = tested on: TK-10 renal
U251 CNS = tested on: U251 CNS
HOP-18 NSCLC = tested on: HOP-18 NSCLC

Structure (SMILES): CC(C)[C@]12O[C@H]1[C@@H]1O[C@]13[C@]1(O[C@H]1C[C@H]1c4c(C(=O)c5ccccc5)oc(OC(=O)c5ccccc5)c4CC[C@@]13C)[C@@H]2O
- GI50 (786-0 renal): 0.0352 µM
- TGI (786-0 renal): 5.22 µM
- GI50 (BT-549 breast): 0.0188 µM
- TGI (BT-549 breast): 0.0951 µM
- GI50 (CCRF-CEM leukemia): 0.0429 µM
- GI50 (HL-60(TB) leukemia): 0.023 µM
- TGI (HL-60(TB) leukemia): > 100 µM
- GI50 (MOLT-4 leukemia): 0.0236 µM
- TGI (MOLT-4 leukemia): > 31.6 µM
- GI50 (OVCAR-5 ovarian): 0.0401 µM
- TGI (OVCAR-5 ovarian): > 100 µM
- GI50 (TK-10 renal): 0.0282 µM
- TGI (TK-10 renal): 27.1 µM
- GI50 (U251 CNS): 0.0863 µM
- TGI (U251 CNS): > 100 µM

Structure (SMILES): COc1cc2c(/C=C3\C(=O)Nc4ccc(Br)cc43)c(Cl)n(C)c2cc1C
- GI50 (786-0 renal): 0.998 µM
- TGI (786-0 renal): 3.94 µM
- GI50 (BT-549 breast): 1.49 µM
- TGI (BT-549 breast): 4.77 µM
- GI50 (CCRF-CEM leukemia): 2.94 µM
- TGI (CCRF-CEM leukemia): 23.2 µM
- GI50 (HL-60(TB) leukemia): 3.09 µM
- TGI (HL-60(TB) leukemia): 16.9 µM
- GI50 (MOLT-4 leukemia): 5.63 µM
- TGI (MOLT-4 leukemia): > 27.5 µM
- GI50 (OVCAR-5 ovarian): 4.11 µM
- TGI (OVCAR-5 ovarian): 15.9 µM
- GI50 (TK-10 renal): 2.72 µM
- TGI (TK-10 renal): 9.19 µM
- GI50 (U251 CNS): 0.675 µM
- TGI (U251 CNS): 6.69 µM

Structure (SMILES): COc1ccccc1Nc1nc(-c2cc3cccc(C(F)(F)F)c3oc2=O)cs1
- GI50 (786-0 renal): 0.218 µM
- TGI (786-0 renal): > 42.9 µM
- GI50 (BT-549 breast): 0.26 µM
- GI50 (CCRF-CEM leukemia): 0.291 µM
- TGI (CCRF-CEM leukemia): > 100 µM
- GI50 (HL-60(TB) leukemia): 0.186 µM
- TGI (HL-60(TB) leukemia): 0.521 µM
- GI50 (MOLT-4 leukemia): 0.5 µM
- TGI (MOLT-4 leukemia): > 100 µM
- GI50 (OVCAR-5 ovarian): 0.572 µM
- TGI (OVCAR-5 ovarian): > 100 µM
- GI50 (TK-10 renal): 13.5 µM
- TGI (TK-10 renal): 81.2 µM
- GI50 (U251 CNS): 0.11 µM
- TGI (U251 CNS): 29.3 µM

Structure (SMILES): O=C(Nc1ccccc1Cl)c1ccc(NC2=C(Cl)C(=O)N(Cc3ccccc3)C2=O)cc1
- GI50 (786-0 renal): 24.8 µM
- TGI (786-0 renal): 57.3 µM
- GI50 (BT-549 breast): 43 µM
- TGI (BT-549 breast): > 100 µM
- GI50 (CCRF-CEM leukemia): > 100 µM
- TGI (CCRF-CEM leukemia): > 100 µM
- GI50 (HL-60(TB) leukemia): 22.5 µM
- TGI (HL-60(TB) leukemia): 50.6 µM
- GI50 (MOLT-4 leukemia): 19.1 µM
- TGI (MOLT-4 leukemia): 50.8 µM
- GI50 (OVCAR-5 ovarian): > 100 µM
- TGI (OVCAR-5 ovarian): > 100 µM
- GI50 (TK-10 renal): 46.7 µM
- TGI (TK-10 renal): > 100 µM
- GI50 (U251 CNS): 38.4 µM
- TGI (U251 CNS): > 100 µM

Structure (SMILES): Cn1cccc1-c1cc(-c2ccc(Br)cc2)nc(N)c1C#N
- GI50 (786-0 renal): > 100 µM
- TGI (786-0 renal): > 100 µM
- GI50 (BT-549 breast): 69.7 µM
- TGI (BT-549 breast): > 100 µM
- GI50 (CCRF-CEM leukemia): > 100 µM
- TGI (CCRF-CEM leukemia): > 100 µM
- GI50 (HL-60(TB) leukemia): 0.413 µM
- TGI (HL-60(TB) leukemia): > 100 µM
- GI50 (MOLT-4 leukemia): > 100 µM
- TGI (MOLT-4 leukemia): > 100 µM
- GI50 (OVCAR-5 ovarian): > 100 µM
- TGI (OVCAR-5 ovarian): > 100 µM
- GI50 (TK-10 renal): > 100 µM
- TGI (TK-10 renal): > 100 µM
- GI50 (U251 CNS): > 100 µM
- TGI (U251 CNS): > 100 µM

Structure (SMILES): CO/N=C1/c2cc(OC)ccc2-c2c(NOC)nc3ccccc3c21
- GI50 (786-0 renal): 17.7 µM
- TGI (786-0 renal): 34.2 µM
- GI50 (BT-549 breast): 21.9 µM
- TGI (BT-549 breast): 49.6 µM
- GI50 (CCRF-CEM leukemia): 70.1 µM
- TGI (CCRF-CEM leukemia): > 100 µM
- GI50 (HL-60(TB) leukemia): 28.3 µM
- TGI (HL-60(TB) leukemia): > 100 µM
- GI50 (MOLT-4 leukemia): 47 µM
- TGI (MOLT-4 leukemia): > 100 µM
- GI50 (OVCAR-5 ovarian): 22 µM
- TGI (OVCAR-5 ovarian): 71.6 µM
- GI50 (TK-10 renal): 16 µM
- TGI (TK-10 renal): 39.7 µM
- GI50 (U251 CNS): 13 µM
- TGI (U251 CNS): 25.7 µM

Structure (SMILES): COc1ccccc1NC(=O)C1=C(C)NC(C)=C(C(=O)Nc2ccccc2OC)C1c1ccc(C(C)C)cc1
- TGI (786-0 renal): > 100 µM
- TGI (CCRF-CEM leukemia): > 1 µM
- TGI (HL-60(TB) leukemia): > 1 µM
- TGI (HOP-18 NSCLC): > 100 µM
- TGI (MOLT-4 leukemia): > 100 µM
- TGI (OVCAR-5 ovarian): > 100 µM
- TGI (TK-10 renal): > 100 µM
- TGI (U251 CNS): > 100 µM
